The target of experiment [1] is Luciferin 4-monooxygenase (Photinus pyralis, UniProt P08659). The experiment is described as follows: Counter Screen for Luciferase-based Assay Positives. [Related pubchem assays: 620, 618, 411 ].
Experiment [2] addresses Serine/threonine-protein kinase pim-1 (Homo sapiens, UniProt P11309). It counts as functional.
The target in experiment [3] is Death-associated protein kinase 3 (Homo sapiens, UniProt O43293). It counts as functional.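 Also: measured as one member of a kinome-wide profiling panel.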
Experiment [4] has as its target Serine/threonine-protein kinase PAK 4 (Homo sapiens, UniProt O96013). Type of experiment: functional.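 Also: value obtained within a kinome profiling panel in which PAK4 was one of the panel members.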

Activity calls are given as the source filed them.

Chain of Serine/threonine-protein kinase pim-1 (P11309 whole entry): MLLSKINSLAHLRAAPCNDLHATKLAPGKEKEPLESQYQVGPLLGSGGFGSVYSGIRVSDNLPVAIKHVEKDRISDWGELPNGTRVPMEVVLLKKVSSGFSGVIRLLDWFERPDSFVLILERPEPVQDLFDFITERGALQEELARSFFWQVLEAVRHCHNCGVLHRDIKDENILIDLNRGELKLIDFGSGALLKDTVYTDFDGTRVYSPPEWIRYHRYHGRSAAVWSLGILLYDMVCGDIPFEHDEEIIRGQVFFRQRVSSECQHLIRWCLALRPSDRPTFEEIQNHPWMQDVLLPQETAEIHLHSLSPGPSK
Chain of Luciferin 4-monooxygenase (P08659 whole entry): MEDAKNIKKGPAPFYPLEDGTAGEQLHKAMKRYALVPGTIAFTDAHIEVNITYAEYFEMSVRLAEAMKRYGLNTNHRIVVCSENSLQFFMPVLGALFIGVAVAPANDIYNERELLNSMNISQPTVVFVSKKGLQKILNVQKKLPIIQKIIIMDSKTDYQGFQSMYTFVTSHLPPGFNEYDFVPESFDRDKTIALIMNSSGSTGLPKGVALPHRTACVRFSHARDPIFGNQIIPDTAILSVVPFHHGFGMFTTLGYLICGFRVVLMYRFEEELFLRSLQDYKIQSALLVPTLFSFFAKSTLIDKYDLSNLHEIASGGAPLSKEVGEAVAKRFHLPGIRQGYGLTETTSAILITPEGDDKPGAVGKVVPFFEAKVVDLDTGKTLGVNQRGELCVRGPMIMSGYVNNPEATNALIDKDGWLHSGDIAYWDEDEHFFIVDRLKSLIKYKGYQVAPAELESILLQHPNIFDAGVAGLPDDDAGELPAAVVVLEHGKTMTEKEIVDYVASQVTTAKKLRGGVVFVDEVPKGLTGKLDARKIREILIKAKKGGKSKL
Chain of Serine/threonine-protein kinase PAK 4 (O96013 whole entry): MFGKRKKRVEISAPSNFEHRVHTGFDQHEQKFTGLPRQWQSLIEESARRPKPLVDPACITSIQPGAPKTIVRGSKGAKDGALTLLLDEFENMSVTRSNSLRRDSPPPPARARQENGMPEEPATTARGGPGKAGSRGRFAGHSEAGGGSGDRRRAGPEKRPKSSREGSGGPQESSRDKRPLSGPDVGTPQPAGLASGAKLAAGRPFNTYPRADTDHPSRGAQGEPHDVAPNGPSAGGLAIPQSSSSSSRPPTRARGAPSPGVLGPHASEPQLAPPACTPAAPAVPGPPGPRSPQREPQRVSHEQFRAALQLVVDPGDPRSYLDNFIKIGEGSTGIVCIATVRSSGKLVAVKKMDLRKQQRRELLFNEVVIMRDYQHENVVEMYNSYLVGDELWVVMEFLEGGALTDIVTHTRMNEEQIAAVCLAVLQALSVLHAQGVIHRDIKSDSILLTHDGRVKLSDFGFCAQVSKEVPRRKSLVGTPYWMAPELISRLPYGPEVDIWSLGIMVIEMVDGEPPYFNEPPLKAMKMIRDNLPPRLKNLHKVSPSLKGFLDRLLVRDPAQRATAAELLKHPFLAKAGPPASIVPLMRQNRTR
Chain of Death-associated protein kinase 3 (O43293 whole entry): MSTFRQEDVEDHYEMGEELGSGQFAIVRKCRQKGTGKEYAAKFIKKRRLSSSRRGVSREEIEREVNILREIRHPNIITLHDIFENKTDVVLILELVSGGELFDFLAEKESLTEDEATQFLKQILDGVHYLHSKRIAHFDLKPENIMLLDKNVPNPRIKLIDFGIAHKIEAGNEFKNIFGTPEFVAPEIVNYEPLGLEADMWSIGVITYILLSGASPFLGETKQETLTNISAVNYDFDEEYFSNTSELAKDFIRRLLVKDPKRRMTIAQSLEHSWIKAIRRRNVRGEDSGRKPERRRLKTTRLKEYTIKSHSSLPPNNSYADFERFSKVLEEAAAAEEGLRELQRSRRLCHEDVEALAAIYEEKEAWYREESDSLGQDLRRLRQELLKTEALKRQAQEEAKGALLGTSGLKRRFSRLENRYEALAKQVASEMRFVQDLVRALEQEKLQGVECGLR

On to `NC(=O)c1c(NC(=O)c2cc3ccccc3o2)sc2c1CCC2`, for which, in experiment [1], the EC50 is 1.7 µM (active).
With `O=C(NC(CCO)c1ccccc1)c1ccc(-c2ccncc2)cc1` (centres undefined), the Ki was > 6.31 µM (inactive) in experiment [2], > 5.01 µM (inactive) in experiment [3] and > 5.01 µM (inactive) in experiment [4].

Source of the values: ChEMBL document CHEMBL1201862, “PubChem BioAssay data set” (2004).
